PubChem BioAssay (NCI)
“And” between values parts separate entries of the source, which are not always exact repeats. Equal values may be shown once.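 At the GI50, growth is halved. TGI denotes the concentration required for complete inhibition of growth.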

Key:
Experiment in all cases: NCI anticancer screen, dose series, 384-well format
786-0 renal = tested on: 786-0 renal
A498 renal = tested on: A498 renal
A549 NSCLC = tested on: A549 NSCLC
ACHN renal = tested on: ACHN renal
BT-549 breast = tested on: BT-549 breast
CAKI-1 renal = tested on: CAKI-1 renal
CCRF-CEM leukemia = tested on: CCRF-CEM leukemia
COLO 205 colon = tested on: COLO 205 colon
DU-145 prostate = tested on: DU-145 prostate
EKVX NSCLC = tested on: EKVX NSCLC
HCC-2998 colon = tested on: HCC-2998 colon
HCT-116 colon = tested on: HCT-116 colon
HCT-15 colon = tested on: HCT-15 colon
HL-60(TB) leukemia = tested on: HL-60(TB) leukemia
HOP-62 NSCLC = tested on: HOP-62 NSCLC
HOP-92 NSCLC = tested on: HOP-92 NSCLC
HS 578T breast = tested on: HS 578T breast
HT29 colon = tested on: HT29 colon
IGROV1 ovarian = tested on: IGROV1 ovarian
K-562 leukemia = tested on: K-562 leukemia
KM12 colon = tested on: KM12 colon
LOX IMVI melanoma = tested on: LOX IMVI melanoma
M14 melanoma = tested on: M14 melanoma
MALME-3M melanoma = tested on: MALME-3M melanoma
MCF7 breast = tested on: MCF7 breast
MDA-MB-231 breast = tested on: MDA-MB-231 breast
MDA-MB-435 melanoma = tested on: MDA-MB-435 melanoma
MDA-MB-468 breast = tested on: MDA-MB-468 breast
MOLT-4 leukemia = tested on: MOLT-4 leukemia
NCI-H226 lung = tested on: NCI-H226 lung
NCI-H23 lung = tested on: NCI-H23 lung
NCI-H322M lung = tested on: NCI-H322M lung
NCI-H460 NSCLC = tested on: NCI-H460 NSCLC
NCI-H522 lung = tested on: NCI-H522 lung
NCI/ADR-RES ovarian = tested on: NCI/ADR-RES ovarian
OVCAR-3 ovarian = tested on: OVCAR-3 ovarian
OVCAR-4 ovarian = tested on: OVCAR-4 ovarian
OVCAR-5 ovarian = tested on: OVCAR-5 ovarian
OVCAR-8 ovarian = tested on: OVCAR-8 ovarian
PC-3 prostate = tested on: PC-3 prostate
RPMI-8226 leukemia = tested on: RPMI-8226 leukemia
RXF 393 renal = tested on: RXF 393 renal
SF-268 CNS = tested on: SF-268 CNS
SF-295 CNS = tested on: SF-295 CNS
SF-539 CNS = tested on: SF-539 CNS
SK-MEL-28 melanoma = tested on: SK-MEL-28 melanoma
SK-MEL-5 melanoma = tested on: SK-MEL-5 melanoma
SK-OV-3 ovarian = tested on: SK-OV-3 ovarian
SN12C renal = tested on: SN12C renal
SNB-19 CNS = tested on: SNB-19 CNS
SNB-75 CNS = tested on: SNB-75 CNS
SW-620 colon = tested on: SW-620 colon
T-47D breast = tested on: T-47D breast
TK-10 renal = tested on: TK-10 renal
U251 glioblastoma = tested on: U251 glioblastoma
UACC-257 melanoma = tested on: UACC-257 melanoma
UACC-62 melanoma = tested on: UACC-62 melanoma
UO-31 renal = tested on: UO-31 renal

In the case of `CNC(=O)c1ccc(Nc2ncc(C(F)(F)F)c(NCc3nccnc3N(C)S(C)(=O)=O)n2)cc1`, the GI50 ([…]-0 renal) is reported as 2.4 µM and 2.39 µM, the TGI (786-0 renal) is reported as 10.8 µM and 8.97 µM and the GI50 (A498 renal) is reported as 1.08 µM and 1.35 µM. For the same compound, the TGI (A498 renal) was 4.63 µM and 5.83 µM, the GI50 (A549 NSCLC) was 2.35 µM and 2.24 µM and the TGI (A549 NSCLC) was 6.47 µM and 6.06 µM. For the same compound, the GI50 (ACHN renal) was 1.91 µM and 2.09 µM, the TGI (ACHN renal) was 9.33 µM and 9.55 µM and the GI50 (BT-549 breast) was 1.58 µM and 1.99 µM. The TGI (BT-549 breast) was 3.4 µM and 4.08 µM, the GI50 (CAKI-1 renal) was 1.3 µM and 1.48 µM and the TGI (CAKI-1 renal) was 4.51 µM and 4.9 µM. For the same compound, the GI50 (CCRF-CEM leukemia) was 1.71 µM and 2.1 µM, the TGI (CCRF-CEM leukemia) was 3.28 µM and 3.73 µM and the GI50 (COLO 205 colon) was 2.03 µM and 2.41 µM. The TGI (COLO 205 colon) was 5.34 µM and 5.98 µM, the GI50 (DU-145 prostate) was 1.71 µM and 2.2 µM and the TGI (DU-145 prostate) was 10.7 µM and 11.1 µM. For the same compound, the GI50 (EKVX NSCLC) was 1.58 µM and 1.89 µM, the TGI (EKVX NSCLC) was 4.56 µM and 5.27 µM and the GI50 (HCC-2998 colon) was 1.5 µM and 1.74 µM. For the same compound, the TGI (HCC-2998 colon) was 4.34 µM and 4.68 µM, the GI50 (HCT-116 colon) was 1.75 µM and 1.94 µM and the TGI (HCT-116 colon) was 6.22 µM and 4.86 µM. The GI50 (HCT-15 colon) was 1.84 µM and 2.79 µM, the TGI (HCT-15 colon) was 5.7 µM and 8.92 µM and the GI50 (HL-60(TB) leukemia) was 1.61 µM and 2.02 µM. For the same compound, the TGI (HL-60(TB) leukemia) was 2.97 µM and 3.47 µM, the GI50 (HOP-62 NSCLC) was 2.04 µM and 2.11 µM and the TGI (HOP-62 NSCLC) was 6.31 µM and 7.25 µM. The GI50 (HOP-92 NSCLC) was 2.21 µM and 2.54 µM, the TGI (HOP-92 NSCLC) was 6.44 µM and 6.5 µM and the GI50 (HS 578T breast) was 1.3 µM and 0.449 µM. The TGI (HS 578T breast) was 3.1 µM and 2.42 µM, the GI50 (HT29 colon) was 2.11 µM and 2.25 µM and the TGI (HT29 colon) was 5.19 µM and 5.71 µM. The GI50 (IGROV1 ovarian) was 0.558 µM and 0.673 µM, the TGI (IGROV1 ovarian) was 5.91 µM and 8.38 µM and the GI50 (K-562 leukemia) was 3.45 µM and 3.44 µM. The TGI (K-562 leukemia) was 16.8 µM, the GI50 (KM12 colon) was 0.25 µM and 0.239 µM and the TGI (KM12 colon) was 2.36 µM and 2.86 µM. For the same compound, the GI50 (LOX IMVI melanoma) was 1.53 µM and 1.65 µM, the TGI (LOX IMVI melanoma) was 3.34 µM and 3.52 µM and the GI50 (M14 melanoma) was 1.29 µM and 1.53 µM. The TGI (M14 melanoma) was 3.78 µM and 4.15 µM, the GI50 (MALME-3M melanoma) was 2.12 µM and 2.65 µM and the TGI (MALME-3M melanoma) was 4.88 µM and 6.18 µM. The GI50 (MCF7 breast) was 2.21 µM and 1.9 µM, the TGI (MCF7 breast) was 7.68 µM and 5.85 µM and the GI50 (MDA-MB-231 breast) was 2.38 µM and 3.04 µM. For the same compound, the TGI (MDA-MB-231 breast) was 11.7 µM and 14.6 µM, the GI50 (MDA-MB-435 melanoma) was 2.88 µM and 4.55 µM and the TGI (MDA-MB-435 melanoma) was 11.8 µM and 14.4 µM. For the same compound, the GI50 (MDA-MB-468 breast) was 1.35 µM and 1.79 µM, the TGI (MDA-MB-468 breast) was 2.95 µM and 3.71 µM and the GI50 (MOLT-4 leukemia) was 1.95 µM and 2.16 µM. The TGI (MOLT-4 leukemia) was 3.58 µM and 3.84 µM, the GI50 (NCI-H226 lung) was 2.05 µM and the TGI (NCI-H226 lung) was 11.9 µM and 7.96 µM. For the same compound, the GI50 (NCI-H23 lung) was 1.59 µM and 1.74 µM, the TGI (NCI-H23 lung) was 3.17 µM and 3.43 µM and the GI50 (NCI-H322M lung) was 2.04 µM and 2.2 µM. For the same compound, the TGI (NCI-H322M lung) was 5.32 µM and 6 µM, the GI50 (NCI-H460 NSCLC) was 1.47 µM and 1.67 µM and the TGI (NCI-H460 NSCLC) was 3.13 µM and 3.37 µM. For the same compound, the GI50 (NCI-H522 lung) was 1.94 µM and 2.47 µM, the TGI (NCI-H522 lung) was 3.63 µM and 4.42 µM and the GI50 (NCI/ADR-RES ovarian) was 13.5 µM and 16 µM. For the same compound, the TGI (NCI/ADR-RES ovarian) was 40.5 µM and 35.5 µM, the GI50 (OVCAR-3 ovarian) was 1.42 µM and 1.98 µM and the TGI (OVCAR-3 ovarian) was 3.94 µM and 4.84 µM. For the same compound, the GI50 (OVCAR-4 ovarian) was 2.31 µM and 3.19 µM, the TGI (OVCAR-4 ovarian) was 10.2 µM and 14.1 µM and the GI50 (OVCAR-5 ovarian) was 2.14 µM and 2.41 µM. For the same compound, the TGI (OVCAR-5 ovarian) was 6.77 µM and 7.25 µM, the GI50 (OVCAR-8 ovarian) was 2.73 µM and 3.01 µM and the TGI (OVCAR-8 ovarian) was 7.71 µM and 8.76 µM. The GI50 (PC-3 prostate) was 2.11 µM and 3.35 µM, the TGI (PC-3 prostate) was 6.15 µM and 10.7 µM and the GI50 (RPMI-8226 leukemia) was 1.81 µM and 2.26 µM. For the same compound, the TGI (RPMI-8226 leukemia) was 3.21 µM and 3.75 µM, the GI50 (RXF 393 renal) was 1.15 µM and 1.17 µM and the TGI (RXF 393 renal) was 2.71 µM and 2.73 µM. For the same compound, the GI50 (SF-268 CNS) was 1.03 µM and 0.681 µM, the TGI (SF-268 CNS) was 2.35 µM and 2.26 µM and the GI50 (SF-295 CNS) was 2.72 µM and 2.75 µM. For the same compound, the TGI (SF-295 CNS) was 9.23 µM and 8.16 µM, the GI50 (SF-539 CNS) was 1.55 µM and 1.95 µM and the TGI (SF-539 CNS) was 3.29 µM and 3.85 µM. For the same compound, the GI50 (SK-MEL-28 melanoma) was 1.78 µM and 2.34 µM, the TGI (SK-MEL-28 melanoma) was 3.65 µM and 4.72 µM and the GI50 (SK-MEL-5 melanoma) was 1.34 µM and 1.25 µM. The TGI (SK-MEL-5 melanoma) was 2.69 µM and 2.64 µM, the GI50 (SK-OV-3 ovarian) was 1.31 µM and 1.77 µM and the TGI (SK-OV-3 ovarian) was 5.3 µM and 9.75 µM. For the same compound, the GI50 (SN12C renal) was 1.94 µM and 2.36 µM, the TGI (SN12C renal) was 4.12 µM and 4.97 µM and the GI50 (SNB-19 CNS) was 3.05 µM and 3.92 µM. For the same compound, the TGI (SNB-19 CNS) was 13.3 µM and 12.4 µM, the GI50 (SNB-75 CNS) was 1.28 µM and 1.78 µM and the TGI (SNB-75 CNS) was 3.69 µM and 4.75 µM. For the same compound, the GI50 (SW-620 colon) was 2.02 µM and 2.46 µM, the TGI (SW-620 colon) was 4.39 µM and 5.13 µM and the GI50 (T-47D breast) was 2.5 µM and 2.67 µM. The TGI (T-47D breast) was 6.9 µM and 7.18 µM, the GI50 (TK-10 renal) was 1.77 µM and 2.24 µM and the TGI (TK-10 renal) was 5.22 µM and 6.82 µM. The GI50 (U251 glioblastoma) was 2.17 µM and 2.96 µM, the TGI (U251 glioblastoma) was 7.56 µM and 10.2 µM and the GI50 (UACC-257 melanoma) was 2.06 µM and 2.93 µM. For the same compound, the TGI (UACC-257 melanoma) was 5.32 µM and 8.36 µM, the GI50 (UACC-62 melanoma) was 1.19 µM and 1.4 µM and the TGI (UACC-62 melanoma) was 2.49 µM and 2.81 µM. For the same compound, the GI50 (UO-31 renal) was 1.82 µM and 1.98 µM and the TGI (UO-31 renal) was 4.84 µM and 4.75 µM.
